Measured values from ChEMBL document CHEMBL1649526, “Selection of heterogeneous vancomycin-intermediate Staphylococcus aureus by imipenem” (2009).
≈ marks a conversion by molar mass, not a printed value. Positions of bridges follow the written chain, without caps; N, C: chain ends. Non-standard residues stand in square brackets, D forms with d. Residues, ends and D or L forms follow the SMILES beside them. *: point of attachment. Ileψ(thiazoline)Cys = CC[C@H](C)[C@H](N)C1=N[C@H](C(=O)*)CS1; dOrn = NCCC[C@@H](N)C(=O)O

Tests used:
Format in all cases: functional
Staphylococcus aureus [1] = assay: Antibacterial activity against homo-Methicillin-resistant and tetracycline-resistant and rifampicin-resistant Staphylococcus aureus deltaIP-rifR::vraSH14 by Etest method
Staphylococcus aureus [2] = assay: Antibacterial activity against hetero-vancomycin-intermediate Staphylococcus aureus Mu3 by Etest method
Staphylococcus aureus [3] = assay: Antibacterial activity against methicillin-susceptible, tetracycline-resistant and chloramphenicol-resistant Staphylococcus aureus H14-KVR by Etest method
Staphylococcus aureus [4] = assay: Antibacterial activity against hetero-Methicillin-resistant and tetracycline-resistant Staphylococcus aureus deltaIP by Etest method
Staphylococcus aureus [5] = assay: Antibacterial activity against homo-Methicillin-resistant and tetracycline-resistant Staphylococcus aureus H14 harboring vraS S329L mutant gene by Etest method
Staphylococcus aureus [6] = assay: Antibacterial activity against homo-Methicillin-resistant and tetracycline-resistant Staphylococcus aureus deltaIP::vraSH14 harboring vraSH14 S329L mutant gene by Etest method
Staphylococcus aureus [7] = assay: Antibacterial activity against hetero-Methicillin-resistant and tetracycline-resistant and rifampicin-resistant Staphylococcus aureus deltaIP-rifR harboring RpoB H481Y mutant gene by Etest method
Staphylococcus aureus [8] = assay: Antibacterial activity against methicillin-susceptible, tetracycline-resistant and chloramphenicol-resistant Staphylococcus aureus deltaIP-KVR by Etest method

Compound	MIC (Staphylococcus aureus [1]) [µg/mL]	MIC (Staphylococcus aureus [2]) [µg/mL]	MIC (Staphylococcus aureus [3]) [µg/mL]	MIC (Staphylococcus aureus [4]) [µg/mL]	MIC (Staphylococcus aureus [5]) [µg/mL]	MIC (Staphylococcus aureus [6]) [µg/mL]	MIC (Staphylococcus aureus [7]) [µg/mL]	MIC (Staphylococcus aureus [8]) [µg/mL]
Cc1onc(-c2ccccc2)c1C(=O)N[C@@H]1C(=O)N2[C@@H]1SC(C)(C)[C@@H]2C(=O)O [OXACILLIN]	> 256	> 256	1.5 (≈ 3.74 µM)	6 (≈ 14.9 µM)	> 256	> 256	5 (≈ 12.5 µM)	1.5 (≈ 3.74 µM)
CCCCCCCCCC(=O)N[C@@H](Cc1c[nH]c2ccccc12)C(=O)N[C@H](CC(N)=O)C(=O)N[C@@H](CC(=O)O)C(=O)N[C@@H]1C(=O)NCC(=O)N[C@@H](CCCN)C(=O)N[C@@H](CC(=O)O)C(=O)N[C@H](C)C(=O)N[C@@H](CC(=O)O)C(=O)NCC(=O)N[C@H](CO)C(=O)N[C@@H]([C@H](C)CC(=O)O)C(=O)N[C@@H](CC(=O)c2ccccc2N)C(=O)O[C@@H]1C	2 (≈ 1.23 µM)	2 (≈ 1.23 µM)	0.5 (≈ 0.309 µM)	0.75 (≈ 0.463 µM)	1.75 (≈ 1.08 µM)	1.75 (≈ 1.08 µM)	0.5 (≈ 0.309 µM)	0.5 (≈ 0.309 µM)
CC[C@H](C)[C@H](N)C1=N[C@H](C(=O)N[C@@H](CC(C)C)C(=O)N[C@H](CCC(=O)O)C(=O)N[C@H](C(=O)N[C@H]2CCCCNC(=O)[C@H](CC(N)=O)NC(=O)[C@@H](CC(=O)O)NC(=O)[C@H](Cc3cnc[nH]3)NC(=O)[C@@H](Cc3ccccc3)NC(=O)[C@H]([C@@H](C)CC)NC(=O)[C@@H](CCCN)NC2=O)[C@@H](C)CC)CS1 [BACITRACIN] ({Ileψ(thiazoline)Cys}-L[dE]IK[dOrn]I[dF]H[dD]N; lactam 4-C)	96 (≈ 67.5 µM)	256 (≈ 180 µM)	4 (≈ 2.81 µM)	32 (≈ 22.5 µM)	96 (≈ 67.5 µM)	96 (≈ 67.5 µM)	24 (≈ 16.9 µM)	4 (≈ 2.81 µM)
CO[C@H]1/C=C/O[C@@]2(C)Oc3c(C)c(O)c4c(O)c(c(/C=N/N5CCN(C)CC5)c(O)c4c3C2=O)NC(=O)/C(C)=C\C=C\[C@H](C)[C@H](O)[C@@H](C)[C@@H](O)[C@@H](C)[C@H](OC(C)=O)[C@@H]1C [RIFAMPIN]	> 32	0.006 (≈ 0.00729 µM)	0.004 (≈ 0.00486 µM)	0.004 (≈ 0.00486 µM)	0.004 (≈ 0.00486 µM)	0.004 (≈ 0.00486 µM)	> 32	0.004 (≈ 0.00486 µM)
GENTAMICIN	1	384	0.75	0.75	0.75	0.75	1	0.75
C[C@@H]1O[C@@H]1P(=O)(O)O [FOSFOMYCIN]	96 (≈ 695 µM)	> 1020	0.38 (≈ 2.75 µM)	1 (≈ 7.24 µM)	96 (≈ 695 µM)	96 (≈ 695 µM)	1.5 (≈ 10.9 µM)	0.38 (≈ 2.75 µM)
CN[C@H](CC(C)C)C(=O)N[C@H]1C(=O)N[C@@H](CC(N)=O)C(=O)N[C@H]2C(=O)N[C@H]3C(=O)N[C@H](C(=O)N[C@H](C(=O)O)c4cc(O)cc(O)c4-c4cc3ccc4O)[C@H](O)c3ccc(c(Cl)c3)Oc3cc2cc(c3O[C@@H]2O[C@H](CO)[C@@H](O)[C@H](O)[C@H]2O[C@H]2C[C@](C)(N)[C@H](O)[C@H](C)O2)Oc2ccc(cc2Cl)[C@H]1O [VANCOMYCIN]	3 (≈ 2.07 µM)	3 (≈ 2.07 µM)	0.75 (≈ 0.518 µM)	–	–	–	–	0.75 (≈ 0.518 µM)
C[C@@H](O)[C@H]1C(=O)N2C(C(=O)O)=C(SCCNC=N)C[C@H]12 [IMIPENEM ANHYDROUS]	> 32	> 32	0.19 (≈ 0.635 µM)	0.75 (≈ 2.51 µM)	> 32	> 32	1 (≈ 3.34 µM)	0.19 (≈ 0.635 µM)
